Patent US9186338B2, “Solubility enhancer and use thereof” (priority 2005, dated 2015)

Text: In accordance with yet another aspect of the present invention, there is provided a method for determining the solubility of said drugs, wherein the method comprises incremental addition of said drugs taken from stock to said solubility enhancer, shaking the resultant in an ultrasonic bath to obtain clear solution and determining the solubility.
The solutions of Isotretinoin were made by incremental addition technique, i.e. by adding portions of the drug from pre-weighed stock (Isotretinoin) to known volume of the alkanamide solution and shaking in an ultrasonic bath till the solution was clear. Thereafter the second weight was recorded & solubility was determined.
(§1) Thereafter the second weight was recorded & solubility was determined.
as §1

For `CC1=C(/C=C/C(C)=C/C=C/C(C)=C\C(=O)O)C(C)(C)CCC1` [Isotretinoin], the “amount of drug solubilized in 1 ml of Hexanamide” value was 206 mg, the “amount of drug solubilized in 1 ml of Octanamide” value was 139.2 mg and the “solubility in Hexanamide” value was 20.6 % w/v. For the same compound, the “solubility in Octanamide” value was 13.92 % w/v.
